From the supplement of paper PMC10307832

Assays:
Assay in all cases: relative viability (nuclei count vs DMSO), 5 days (fraction); higher = more cells survive
[1] = system: 201T
Procedure, shortened: (§1)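 Lung cancer cell lines, seeded in 1536-well plates, were treated the following day by pin tool with a single drug or with five library-drug doses (not always all listed) in √10 steps on top of a fixed anchor-drug dose. Cells were fixed and nuclei stained in one step after 5 days, and nuclei were counted. Relative viability is the nuclei count for treated wells divided by that for vehicle wells, reported as medians of duplicate plates.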

[2] = system: A-427
Procedure, shortened: as §1

[3] = system: BEN
Procedure, shortened: as §1

[4] = system: COR-L23
Procedure, shortened: as §1

[5] = system: EKVX
Procedure, shortened: as §1

[6] = system: HARA
Procedure, shortened: as §1

[7] = system: HCC-15
Procedure, shortened: as §1

[8] = system: HCC-44
Procedure, shortened: as §1

[9] = system: HCC-827
Procedure, shortened: as §1

[10] = system: NCI-H1437
Procedure, shortened: as §1

[11] = system: NCI-H1650
Procedure, shortened: as §1

[12] = system: NCI-H1792
Procedure, shortened: as §1

[13] = system: NCI-H1975
Procedure, shortened: as §1

[14] = system: NCI-H2342
Procedure, shortened: as §1

[15] = system: NCI-H23
Procedure, shortened: as §1

[16] = system: NCI-H358
Procedure, shortened: as §1

[17] = system: NCI-H441
Procedure, shortened: as §1

[18] = system: NCI-H596
Procedure, shortened: as §1

[19] = system: NCI-H650
Procedure, shortened: as §1

[20] = system: NCI-H838
Procedure, shortened: as §1

[21] = system: SK-MES-1
Procedure, shortened: as §1

[22] = system: SW 900
Procedure, shortened: as §1

`CC(=O)O[C@@]12CO[C@@H]1C[C@H](O)[C@@]1(C)C(=O)[C@H](O)C3=C(C)[C@@H](OC(=O)[C@H](O)[C@@H](NC(=O)OC(C)(C)C)c4ccccc4)C[C@@](O)([C@@H](OC(=O)c4ccccc4)[C@H]21)C3(C)C` [Docetaxel] + Nc1nc2[nH]cc(CCc3ccc(C(=O)N[C@@H](CCC(=O)O)C(=O)O)cc3)c2c(=O)[nH]1 [Pemetrexed] (partner 0.2 µM) was tested, and the relative viability ([1]; first compound 0.0002 µM) was 0.36, the relative viability ([1]; first compound 0.000632 µM) was 0.32 and the relative viability ([1]; first compound 0.002 µM) was 0.312. It also gave a relative viability ([1]; first compound 0.006325 µM) of 0.424, a relative viability ([1]; first compound 0.02 µM) of 0.255 and a relative viability ([2]; first compound 0.0002 µM) of 0.886. The relative viability ([2]; first compound 0.000632 µM) was 0.946, the relative viability ([2]; first compound 0.002 µM) was 0.822 and the relative viability ([2]; first compound 0.006325 µM) was 0.323. For the same compound, the relative viability ([3]; first compound 0.0002 µM) was 0.68, the relative viability ([3]; first compound 0.000632 µM) was 0.795 and the relative viability ([3]; first compound 0.002 µM) was 0.442. It also gave a relative viability ([3]; first compound 0.006325 µM) of 0.449, a relative viability ([3]; first compound 0.02 µM) of 0.325 and a relative viability ([4]; first compound 0.0002 µM) of 0.189. It also gave a relative viability ([4]; first compound 0.000632 µM) of 0.184, a relative viability ([4]; first compound 0.002 µM) of 0.186 and a relative viability ([4]; first compound 0.006325 µM) of 0.167. The relative viability ([5]; first compound 0.0002 µM) was 0.377, the relative viability ([5]; first compound 0.000632 µM) was 0.392 and the relative viability ([5]; first compound 0.002 µM) was 0.288. The relative viability ([5]; first compound 0.006325 µM) was 0.209, the relative viability ([5]; first compound 0.02 µM) was 0.193 and the relative viability ([6]; first compound 0.0002 µM) was 0.196. For the same compound, the relative viability ([6]; first compound 0.000632 µM) was 0.247, the relative viability ([6]; first compound 0.002 µM) was 0.247 and the relative viability ([6]; first compound 0.006325 µM) was 0.188. It also gave a relative viability ([6]; first compound 0.02 µM) of 0.142, a relative viability ([7]; first compound 0.0002 µM) of 0.235 and a relative viability ([7]; first compound 0.000632 µM) of 0.242. It also gave a relative viability ([7]; first compound 0.002 µM) of 0.262, a relative viability ([7]; first compound 0.006325 µM) of 0.273 and a relative viability ([7]; first compound 0.02 µM) of 0.181. The relative viability ([8]; first compound 0.0002 µM) was 0.627, the relative viability ([8]; first compound 0.000632 µM) was 0.644 and the relative viability ([8]; first compound 0.002 µM) was 0.628. For the same compound, the relative viability ([8]; first compound 0.006325 µM) was 0.602, the relative viability ([8]; first compound 0.02 µM) was 0.491 and the relative viability ([9]; first compound 0.0002 µM) was 0.183. The relative viability ([9]; first compound 0.000632 µM) was 0.282, the relative viability ([9]; first compound 0.006325 µM) was 0.238 and the relative viability ([9]; first compound 0.02 µM) was 0.215. The relative viability ([10]; first compound 0.0002 µM) was 0.3, the relative viability ([10]; first compound 0.000632 µM) was 0.361 and the relative viability ([10]; first compound 0.002 µM) was 0.32. It also gave a relative viability ([10]; first compound 0.006325 µM) of 0.288, a relative viability ([10]; first compound 0.02 µM) of 0.213 and a relative viability ([11]; first compound 0.0002 µM) of 0.387. For the same compound, the relative viability ([11]; first compound 0.000632 µM) was 0.412, the relative viability ([11]; first compound 0.002 µM) was 0.28 and the relative viability ([11]; first compound 0.006325 µM) was 0.263. It also gave a relative viability ([11]; first compound 0.02 µM) of 0.158, a relative viability ([12]; first compound 0.0002 µM) of 0.764 and a relative viability ([12]; first compound 0.000632 µM) of 0.533. For the same compound, the relative viability ([12]; first compound 0.002 µM) was 0.223, the relative viability ([12]; first compound 0.006325 µM) was 0.105 and the relative viability ([12]; first compound 0.02 µM) was 0.0705. The relative viability ([13]; first compound 0.0002 µM) was 0.286, the relative viability ([13]; first compound 0.000632 µM) was 0.277 and the relative viability ([13]; first compound 0.002 µM) was 0.232. For the same compound, the relative viability ([13]; first compound 0.006325 µM) was 0.18, the relative viability ([13]; first compound 0.02 µM) was 0.137 and the relative viability ([14]; first compound 0.0002 µM) was 0.731. For the same compound, the relative viability ([14]; first compound 0.000632 µM) was 0.745, the relative viability ([14]; first compound 0.002 µM) was 0.584 and the relative viability ([14]; first compound 0.006325 µM) was 0.495. The relative viability ([14]; first compound 0.02 µM) was 0.493, the relative viability ([15]; first compound 0.0002 µM) was 0.712 and the relative viability ([15]; first compound 0.000632 µM) was 0.557. It also gave a relative viability ([15]; first compound 0.002 µM) of 0.258, a relative viability ([15]; first compound 0.006325 µM) of 0.207 and a relative viability ([15]; first compound 0.02 µM) of 0.14. The relative viability ([16]; first compound 0.0002 µM) was 0.16, the relative viability ([16]; first compound 0.000632 µM) was 0.172 and the relative viability ([16]; first compound 0.002 µM) was 0.164. For the same compound, the relative viability ([16]; first compound 0.006325 µM) was 0.155, the relative viability ([16]; first compound 0.02 µM) was 0.117 and the relative viability ([17]; first compound 0.000632 µM) was 0.253. For the same compound, the relative viability ([17]; first compound 0.002 µM) was 0.206, the relative viability ([17]; first compound 0.006325 µM) was 0.198 and the relative viability ([18]; first compound 0.0002 µM) was 0.486. For the same compound, the relative viability ([18]; first compound 0.000632 µM) was 0.568, the relative viability ([18]; first compound 0.002 µM) was 0.675 and the relative viability ([18]; first compound 0.006325 µM) was 0.441. It also gave a relative viability ([18]; first compound 0.02 µM) of 0.369, a relative viability ([19]; first compound 0.0002 µM) of 0.941 and a relative viability ([19]; first compound 0.000632 µM) of 0.44. For the same compound, the relative viability ([19]; first compound 0.002 µM) was 0.393, the relative viability ([19]; first compound 0.006325 µM) was 0.237 and the relative viability ([19]; first compound 0.02 µM) was 0.198. The relative viability ([20]; first compound 0.0002 µM) was 0.247, the relative viability ([20]; first compound 0.000632 µM) was 0.27 and the relative viability ([20]; first compound 0.002 µM) was 0.22. It also gave a relative viability ([20]; first compound 0.006325 µM) of 0.157, a relative viability ([20]; first compound 0.02 µM) of 0.134 and a relative viability ([21]; first compound 0.0002 µM) of 0.971. It also gave a relative viability ([21]; first compound 0.000632 µM) of 0.907, a relative viability ([21]; first compound 0.002 µM) of 0.499 and a relative viability ([21]; first compound 0.006325 µM) of 0.341. The relative viability ([21]; first compound 0.02 µM) was 0.197, the relative viability ([22]; first compound 0.0002 µM) was 0.462 and the relative viability ([22]; first compound 0.000632 µM) was 0.332. For the same compound, the relative viability ([22]; first compound 0.002 µM) was 0.303, the relative viability ([22]; first compound 0.006325 µM) was 0.281 and the relative viability ([22]; first compound 0.02 µM) was 0.24.
